In patent publication US8501214B2, “Hydrophilic foam and pharmaceutical dosage form employing the same” (priority 2007, dated 2013):
Read-outs that look alike come from different tables or passages of the source. Values belong to the molecule of their own block, whether it stands above or below them.

Tests used:
[1] = Solvent/water partition coefficient analysis (1-Octanol/water); assay type: physicochemical; conditions: for logP: logarithm of the ratio of 1-Octanol to water, read-out: Partition coefficient [log Poct/wat]
Experimental: Solvent/water partition coefficient analysis was conducted to determine the solvent/water partition coefficient. Various solvent were used in the experiments; yet, only the 1-Octanol/water partition coefficients of the active agents described herein above are summarized in Table 4. The 1-Octanol/water partition coefficient is the logarithm of the ratio of 1-Octanol to water and can be expressed as [log Poct/wat].

[2] = Transmembrane penetration analysis; assay type: in vitro ADME, swine; conditions: for True Value Concentration (completely penetrated active agent): 0.25 mL gel admixed with 5.5 mL saline; for Penetration Ratio: relative to true value
Description: The solution was admixed with the aquagel or O/W gel described hereinabove to afford an active agent-containing gel. In the comparative example, commercially available vaseline ointment was admixed with heptane to form vaseline gel, and the solution was also admixed with the vaseline gel.
In the transmembrane penetration analysis, swine endometrium was used as the membrane. The swine endometrium of suitable size was disposed between an upper container and a lower container. The lower container was filled with physiologic saline and debubbled. […] The pipetted sample was analyzed with HPLC-PDA system.
In addition, about 0.25 mL of each gel was admixed with about 5.5 mL of saline. The admixture was extracted, filtered through a filter film (0.45 μm) and then analyzes by HPLE-PDA. The results (referred to as the “true value” hereinafter) thus obtained were regarded as the amount of a completely penetrated active agent present in the lower container.

[3] = Comparative Example D (vaseline gel)
[4] = Working Example 3 (aqua gel), 1 hr
[5] = Working Example 3 (aqua gel), 3 hr
[6] = Working Example 3 (aqua gel), 5 hr
[7] = Working Example 3 (aqua gel), 21 hr
[8] = Working Example 3 (aqua gel), 24 hr
[9] = Working Example 4 (O/W gel), 21 hr
[10] = Working Example 4 (O/W gel), 24 hr
[11] = Working Example 4 (O/W gel), 26 hr

SMILES: Nc1nc2c(ncn2COCCO)c(=O)[nH]1 [Acyclovir (ACY), Acyclovir]
logP ([1]; 1-octanol/water): -1.58 | True Value Concentration (completely penetrated active agent) [2, 3]: 0.1865 mg/mL | True Value Concentration (completely penetrated active agent) ([2]; Working Example 3 (aqua gel)): 0.09979 mg/mL | Concentration in lower container [2, 4]: 5970 ng/mL | Concentration in lower container [2, 5]: 21420 ng/mL | Concentration in lower container [2, 6]: 29640 ng/mL | Concentration in lower container [2, 7]: 62890 ng/mL | Concentration in lower container [2, 8]: 58630 ng/mL | True Value Concentration (completely penetrated active agent) ([2]; Working Example 4 (O/W gel)): 0.1375 mg/mL | Concentration in lower container [2, 9]: 2510 ng/mL | Concentration in lower container [2, 10]: 60500 ng/mL | Concentration in lower container [2, 11]: 83400 ng/mL

SMILES: O=c1ccc2ccc3occc3c2o1 [Isopsoralen]
1-Octanol/H2O ratio [1]: 306.9 | logP [1]: 2.49

SMILES: Cc1ncc([N+](=O)[O-])n1CCO [Metronidazole (MTZ), Metronidazole]
logP ([1]; 1-octanol/water): 0.05 | True Value Concentration (completely penetrated active agent) [2, 3]: 0.1563 mg/mL | Concentration in lower container ([2]; Comparative Example D (vaseline gel), 3 hr): 460 ng/mL | Concentration in lower container ([2]; Comparative Example D (vaseline gel), 5 hr): 590 ng/mL | Concentration in lower container ([2]; Comparative Example D (vaseline gel), 10.5 hr): 960 ng/mL | Concentration in lower container ([2]; Comparative Example D (vaseline gel), 24 hr): 1740 ng/mL | Concentration in lower container ([2]; Comparative Example D (vaseline gel), 26 hr): 1430 ng/mL | True Value Concentration (completely penetrated active agent) ([2]; Working Example 3 (aqua gel)): 0.09568 mg/mL | Concentration in lower container [2, 4]: 13200 ng/mL | Concentration in lower container [2, 5]: 31080 ng/mL | Concentration in lower container [2, 6]: 395900 ng/mL | Concentration in lower container [2, 7]: 635800 ng/mL | Concentration in lower container [2, 8]: 587100 ng/mL | Concentration in lower container ([2]; Working Example 3 (aqua gel), 26 hr): 595100 ng/mL | True Value Concentration (completely penetrated active agent) ([2]; Working Example 4 (O/W gel)): 0.1433 mg/mL | Concentration in lower container [2, 9]: 6510 ng/mL | Concentration in lower container [2, 10]: 61670 ng/mL | Concentration in lower container [2, 11]: 81070 ng/mL

SMILES: C[C@@H]1[C@H](O)[C@@H](C)/C=C/C=C/CC/C=C/C=C/C=C/C=C/C(O[C@H]2O[C@H](C)[C@@H](O)[C@H](N)[C@@H]2O)CC2O[C@](O)(CC(O)C(O)CCC(O)CC(O)CC(O)CC(=O)O[C@H]1C)CC(O)C2C(=O)O (some centres unmarked) [Nystatin (NYS), Nystatin]
1-Octanol/H2O ratio [1]: 1.98 | Partition coefficient [log Poct/wat] [1]: 0.30 | True Value Concentration (completely penetrated active agent) ([2]; Working Example 4 (O/W gel)): 0.06448 mg/mL | Concentration in lower container [2, 9]: 1930 ng/mL | Penetration Ratio [2, 9]: 2.99% | Concentration in lower container [2, 10]: 20720 ng/mL | Penetration Ratio [2, 10]: 32.14% | Concentration in lower container [2, 11]: 30070 ng/mL | Penetration Ratio [2, 11]: 46.64%

SMILES: CC(C)[C@]12O[C@H]1[C@@H]1O[C@]13[C@]1(O[C@H]1C[C@H]1C4=C(CC[C@@]13C)C(=O)OC4)[C@@H]2O [Triptolide]
1-Octanol/H2O ratio [1]: 54.13 | logP [1]: 1.73

Next, values leading:

1-Octanol/H2O ratio [1]: Insoluble in water
SMILES: O=c1cc(-c2ccccc2)oc2cc(O)c(O)c(O)c12 [Baicalein]

1-Octanol/H2O ratio [1]: 1.859 | logP [1]: 0.27
SMILES: O=C(O)c1cc(O)c(O)c(O)c1 [Gallic acid]

True Value Concentration (completely penetrated active agent) ([2]; Working Example 4 (O/W gel)): 0.1401 mg/mL | Concentration in lower container [2, 9]: 7060 ng/mL | Concentration in lower container [2, 10]: 60660 ng/mL | Concentration in lower container [2, 11]: 82720 ng/mL
SMILES: Clc1ccc(COC(Cn2ccnc2)c2ccc(Cl)cc2Cl)c(Cl)c1 (centres unmarked) [Miconazole nitrate(MIC), Miconazole nitrate]
